# Measurements reported in PMC7822874, “Chemoprotective antimalarials identified through quantitative high-throughput screening of Plasmodium blood and liver stage parasites” (Scientific Reports, 2021).
# Experiments:
# [1] = molecular target: Firefly luciferase (Fluc, EC 1.13.12.7) (Photinus pyralis, UniProt P08659); test: biochemical; design: single determination (the paper says generally: 'qHTS assays were performed in a single replicate with a 7- to 11-point dose response format'; it is not stated for this counterscreen itself)
# Chain of Firefly luciferase (Fluc, EC 1.13.12.7) (P08659 whole entry): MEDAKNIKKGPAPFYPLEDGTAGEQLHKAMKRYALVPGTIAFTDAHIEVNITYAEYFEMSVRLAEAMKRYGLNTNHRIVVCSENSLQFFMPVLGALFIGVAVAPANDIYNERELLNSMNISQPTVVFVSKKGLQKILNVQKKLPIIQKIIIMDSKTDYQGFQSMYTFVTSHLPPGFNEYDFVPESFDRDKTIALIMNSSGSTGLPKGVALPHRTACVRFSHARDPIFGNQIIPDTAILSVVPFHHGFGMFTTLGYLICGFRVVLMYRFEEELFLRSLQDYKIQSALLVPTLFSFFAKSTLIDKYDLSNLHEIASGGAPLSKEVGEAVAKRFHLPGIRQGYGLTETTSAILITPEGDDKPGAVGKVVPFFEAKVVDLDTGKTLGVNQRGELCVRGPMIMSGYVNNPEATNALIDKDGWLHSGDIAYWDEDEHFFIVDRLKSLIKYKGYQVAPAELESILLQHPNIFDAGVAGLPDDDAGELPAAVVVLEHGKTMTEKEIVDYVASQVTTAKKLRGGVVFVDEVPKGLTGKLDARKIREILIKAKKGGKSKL
# [2] = tested on: Plasmodium falciparum Dd2 asexual blood stage parasites; test: microbe, parasite or virus in culture; design: species or system Plasmodium falciparum Dd2 in human erythrocytes; single determination (one 11-point concentration-response curve); conditions: Plasmodium falciparum, DD2, Erythrocyte, 72 h; read-out: AC50
SMILES,AC50 [1] [µM],AC50 [2] [µM]
Nc1nc(Nc2ccccc2)nc2ccccc12 [MLS000026767-01],13.6,
N#CC(=C1CCCC1)c1nc(-c2ccccc2O)cs1 [MLS000034824-01],19.2,9.44
Cc1ccc(C(=O)Nc2sc3c(c2C(=O)O)CCCCC3)o1 [MLS000060651-01],10.8,
Cc1ccoc1C(=O)Nc1ccc(CC(=O)O)cc1 [MLS000122814-01],12.1,
O=C(O)COc1ccc(-c2nccc(-c3cccs3)n2)cc1 [MLS000331320-01],6.81,
c1ccc2sc(Sc3ncnc4sccc34)nc2c1 [MLS000334432-01],8.57,0.944
Cc1ccc(-c2cc(O)c3cc(C)ccc3n2)cc1 [MLS000517822-01],12.1,10.6
Cc1ccc2[nH]c(-c3sc4nc(C)ccc4c3N)nc2c1 [MLS000547128-01],12.1,
CCN(CC)CCN1C(=O)c2ccccc2NC1c1ccc(N(C)C)cc1 (centres unmarked) [MLS000554078-01],1.92,4.22
COC(=O)c1nn(-c2ccc3c(c2)CCN3C(C)=O)cc1O [MLS000565173-01],10.8,
CCOC(=O)Cc1csc(NC(=S)NC(=O)c2ccc(C)cc2)n1 [MLS000574610-01],9.62,
NC(=NOC(=O)/C=C/c1ccc(Br)cc1)c1ccccn1 [MLS000680558-01],9.62,
O=C(COc1ccc2ccccc2c1)Nc1nccs1 [MLS000718732-01],8.57,
Cc1ccc(-c2nc(C)c(C(=O)O)s2)cc1 [MLS000735996-01],13.6,
Cc1ccc2nc(N3C(=O)CNC3=S)sc2c1 [MLS000768544-01],10.8,
CC1(C)Cc2nc3sc4c(SCC(=O)O)ncnc4c3cc2CO1 [MLS000778156-01],10.8,
Cc1cc(C(N)=NOC(=O)c2ccccc2Cl)no1 [MLS000833967-01],13.6,
C/C(=N\OCc1cccc(C(=O)O)c1)c1ccc(Cl)cc1 [MLS000850591-01],0.0136,
COc1ccc(C(=O)C=CNc2cc(C)ccn2)cc1 [MLS001043227-01],8.57,
